# In patent US20220194938A1, “NOVEL COMPOUNDS AND PHARMACEUTICAL COMPOSITIONS THEREOF FOR THE TREATMENT OF INFLAMMATORY DISORDERS” (GALAPAGOS NV, priority 2019, published 2022):
# Molecular target: T1, hERG channel (Homo sapiens, UniProt Q12809)
# T1 construct: host or cells: HEK293
# Experiment: hERG channel test - manual patch clamp assay
# Assay type: cell-based
# Conditions: HEK293 cells stably transfected with hERG, tail current
# Protocol: 4.7 hERG Channel Test—Manual Patch Clamp Assay
# The aim of this assay is to determine the in-vitro effects of a test compound on hERG current ([…]) expressed in Human Embryonic Kidney (HEK) cells (evaluation of the blocking profile of test substance on the IKr-like potassium current mediated by hERG channel stably transfected in a human cell line), which is linked to cardiac safety.
# The test substance is dissolved in pure dimethylsulfoxide (DMSO) by cold stirring to give a stock solution concentrated 333-fold as compared with the highest concentration to be tested. This stock solution is used to prepare the other stock solutions in DMSO. Each stock solution is used to prepare the solutions containing the final concentrations tested by dilution in extracellular solution (0.1, 1, 10 and 100 μM). Final concentration of DMSO should not not exceed 0.3%.
# All formulations are prepared in glass containers.
# If a slight opalescence persists at the highest concentration, a 50 μM (instead of 100 μM) concentration is tested.
# DMSO diluted in extracellular solution (at the different concentrations used in the final test substance solutions) is used as vehicle.
# The extracellular solution is constituted as follows (mM): K-gluconate: 4 mM/Na-gluconate: 145 mM/Mg-gluconate: 2 mM/Ca-gluconate: 3.5 mM/HEPES: 5 mM/glucose: 5 mM/mannitol: 20 mM. The pH is adjusted with NaOH to 7.40±0.05.
# Human embryonic kidney (HEK293) cells are stably transfected with the hERG clone (Creacell) and are maintained at 37° C. in a 5% CO2/95% air incubator. Cells used for the study are transferred to an experimental chamber of approximately 2 mL which is maintained at a temperature of 35±0.5° C. by a thermoelectric device (Harvard Apparatus: Type TC-344B) and mounted on the platform of an inverted microscope (Olympus: Type IX-51 or Leica DMI3000 B). Cells are continuously superfused with Tyrode's solution constituted as follows (mM): NaCl: 145/KCl: 4/HEPES: 5/glucose: 5/CaCl2:1/MgCl2: 1.
# Ionic currents from hERG-transfected cells are measured using the whole cell configuration of the patch clamp technique. Glass pipettes are pulled from borosilicate glass by a vertical puller (Sutter Instruments: Type P30). Pipette tip resistance is approximately 1.5 to 3.5 MΩ when filled with internal solution constituted as follows (mM): K-gluconate: 145/Mg-gluconate: 1/EGTA: 2/HEPES:5/K2ATP: 2.
# The pipettes are connected to the input stage of a patch-clamp amplifier (Axon Instruments: Multiclamp 700B-1). Stimulation, data recording and analysis are performed using specialized Axon Instruments software (pClamp 9.2.0. or pClamp 10.3.0.2).
# After rupture of the cell membrane (entering whole-cell mode), cells are stimulated every 10 seconds using the following protocol: 500 ms pulse to +10 mV from a holding potential of −80 mV followed by a 500 ms pulse to −40 mV during which tail current is measured.
# Once the current under control conditions is stable, recordings are taken before (control) and after addition of the test substance. The effect of the test substance on tail current is monitored continuously until steady-state is reached. The peak tail current amplitude is averaged for 3 stimuli.
# The following parameters are measured: • Cell capacitance (pF). • Peak tail current amplitude (pA).
# Peak tail current measurements are normalized using the cell capacitance as an index of cell surface.
# The cells will be considered as valid if cell capacitance <80 pF, access resistance <20 MΩ and holding current >−200 pA.
# Results are expressed as absolute values and as percentage change from control (percentage of tail current inhibition).
# The test substance is studied at 4 ascending concentrations on 3 hERG-transfected cells.
# The concentration of test substance inducing 50% of inhibition (IC50) of tail current is determined, if possible, from each individual concentration-response curve. The equation is of the following form: […]
# T1 sequence (Q12809 whole entry): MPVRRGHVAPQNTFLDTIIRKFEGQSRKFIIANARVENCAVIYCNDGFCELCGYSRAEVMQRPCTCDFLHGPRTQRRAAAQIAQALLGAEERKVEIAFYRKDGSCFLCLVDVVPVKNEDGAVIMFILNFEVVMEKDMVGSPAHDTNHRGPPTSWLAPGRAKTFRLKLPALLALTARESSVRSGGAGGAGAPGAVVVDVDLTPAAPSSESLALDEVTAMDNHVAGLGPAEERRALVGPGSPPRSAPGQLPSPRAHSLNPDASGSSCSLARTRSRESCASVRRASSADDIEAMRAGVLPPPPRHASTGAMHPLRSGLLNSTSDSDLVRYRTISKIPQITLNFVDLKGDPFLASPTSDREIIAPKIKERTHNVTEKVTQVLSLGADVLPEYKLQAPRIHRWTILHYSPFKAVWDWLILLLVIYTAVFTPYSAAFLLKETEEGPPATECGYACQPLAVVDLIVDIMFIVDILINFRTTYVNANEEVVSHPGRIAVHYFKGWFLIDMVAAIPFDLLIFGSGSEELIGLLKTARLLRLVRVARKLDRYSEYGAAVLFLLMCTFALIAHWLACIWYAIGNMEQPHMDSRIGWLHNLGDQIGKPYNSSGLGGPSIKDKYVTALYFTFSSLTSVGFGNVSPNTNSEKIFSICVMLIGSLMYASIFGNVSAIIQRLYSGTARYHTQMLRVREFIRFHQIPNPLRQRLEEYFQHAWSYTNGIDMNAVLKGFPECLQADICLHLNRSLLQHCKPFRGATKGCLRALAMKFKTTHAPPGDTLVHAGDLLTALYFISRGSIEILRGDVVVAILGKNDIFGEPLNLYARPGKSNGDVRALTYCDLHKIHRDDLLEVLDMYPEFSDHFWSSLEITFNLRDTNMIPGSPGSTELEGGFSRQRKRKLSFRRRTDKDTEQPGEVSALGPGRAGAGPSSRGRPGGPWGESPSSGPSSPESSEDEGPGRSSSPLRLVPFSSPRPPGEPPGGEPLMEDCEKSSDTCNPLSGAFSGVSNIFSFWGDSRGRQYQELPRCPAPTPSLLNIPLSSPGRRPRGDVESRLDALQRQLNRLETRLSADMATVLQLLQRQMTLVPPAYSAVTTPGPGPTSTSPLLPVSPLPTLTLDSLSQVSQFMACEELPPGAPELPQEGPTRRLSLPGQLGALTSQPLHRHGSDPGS
SMILES,hERG Manual Patch Clamp Single dose PIN (10 μM) [%],IC50 [µM]
"CNC(=O)c1cc2nc(CCC(C)(C)O)cn2cc1NC(=O)c1cccc(C(F)(F)F)n1 [Compound 2, 2-(3-hydroxy-3-methyl-butyl)-N-methyl-6-[[6-(trifluoromethyl)pyridine-2-carbonyl]amino]imidazo[1,2-a]pyridine-7-carboxamide]",−44.7,19.2
"COc1cc2nc(CCC(C)(C)O)cn2cc1NC(=O)c1cccn(C2CC2)c1=O [Compound 5, 1-cyclopropyl-N-[2-(3-hydroxy-3-methyl-butyl)-7-methoxy-imidazo[1,2-a]pyridin-6-yl]-2-oxo-pyridine-3-carboxamide]",−25,
"COc1cc2nc(CCC(C)(C)O)cn2cc1NC(=O)c1cccn(C(F)F)c1=O [Compound 12, 1-(difluoromethyl)-N-[2-(3-hydroxy-3-methyl-butyl)-7-methoxy-imidazo[1,2-a]pyridin-6-yl]-2-oxo-pyridine-3-carboxamide]",−76.3,3.05
"CC(C)(O)CCc1cn2cc(NC(=O)c3cccc(C(F)(F)F)n3)c(C(N)=O)cc2n1 [Compound 31, 2-(3-hydroxy-3-methyl-butyl)-6-[[6-(trifluoromethyl)pyridine-2-carbonyl]amino]imidazo[1,2-a]pyridine-7-carboxamide]",−46.7,16.3
"CCOc1c(NC(=O)c2cccn(C3CC3)c2=O)cn2cc(CCC(C)(C)O)nc2c1F [Compound 37, 1-cyclopropyl-N-[7-ethoxy-8-fluoro-2-(3-hydroxy-3-methyl-butyl)imidazo[1,2-a]pyridin-6-yl]-2-oxo-pyridine-3-carboxamide]",−56.3,6.99
"CCOc1c(NC(=O)c2cccn(C)c2=O)cn2cc(CCC(C)(C)O)nc2c1F [Compound 38, N-[7-ethoxy-8-fluoro-2-(3-hydroxy-3-methyl-butyl)imidazo[1,2-a]pyridin-6-yl]-1-methyl-2-oxo-pyridine-3-carboxamide]",−30.0,
"CCOc1c(NC(=O)c2cccn(C3CC3)c2=O)cn2cc(CCS(C)(=O)=O)nc2c1F [Compound 39, 1-cyclopropyl-N-[7-ethoxy-8-fluoro-2-(2-methylsulfonylethyl)imidazo[1,2-a]pyridin-6-yl]-2-oxo-pyridine-3-carboxamide]",−39.7,> 10
"COc1c(NC(=O)c2cccn(C3CC3)c2=O)cn2cc(CCC(C)(C)O)nc2c1F [Compound 42, 1-cyclopropyl-N-[8-fluoro-2-(3-hydroxy-3-methyl-butyl)-7-methoxy-imidazo[1,2-a]pyridin-6-yl]-2-oxo-pyridine-3-carboxamide]",−12,> 92.3
"CC(C)(O)CCc1cn2cc(NC(=O)c3cccc(C(F)(F)F)n3)c(C(=O)NCC(F)F)cc2n1 [Compound 48, N-(2,2-difluoroethyl)-2-(3-hydroxy-3-methylbutyl)-6-(6-(trifluoromethyl)picolinamido)imidazo[1,2-a]pyridine-7-carboxamide]",−20.5,
"CCNC(=O)c1cc2nc(CCC(C)(C)O)cn2cc1NC(=O)c1cccc(C(F)(F)F)n1 [Compound 49, N-ethyl-2-(3-hydroxy-3-methylbutyl)-6-(6-(trifluoromethyl)picolinamido)imidazo[1,2-a]pyridine-7-carboxamide]",−17,
